Reference: article PMC5786798, “Discovery of New Inhibitors of Toxoplasma gondii via the Pathogen Box” (Antimicrobial Agents and Chemotherapy, 2018)

Columns and labels:
[1] = system: Toxoplasma gondii; conditions: effect against Toxoplasma; literature value, no reference given; cited from earlier work
[2] = system: T. gondii tachyzoites (RH strain, type I); test: Determination of IC50s, in vitro chemosensitivity of T. gondii (ELISA, 72 h); conditions: for IC50: 72 h, T. gondii RH tachyzoites on Vero cells, ELISA, 2-fold dilution series 2 to 0.015 μM, means from four values from two experiments; for selective antitoxoplasmic activity according to hit criteria: hit criteria IC50 <2 μM and SI >4
[3] = Cytotoxicity evaluation on Vero cell cultures (UptiBlue viable cell counting assay, 72 h); format: cell-based; conditions: African green monkey, Vero cells, means from four values from two experiments
Method: The in vitro cytotoxicity of compounds was evaluated on Vero cell cultures by using 96-well plates, since these cells were used for T. gondii growth in our model. […] After 72 h, cytotoxicity was evaluated by using the UptiBlue viable cell counting assay (Interchim). […] Spectrophotometric measurements (FLUOstar Omega microplate reader; BMG Labtech, France) were made at 570 nm and corrected at 600 nm, and blank readings were made on the mean value of the seven negative-control wells. A sample was considered toxic when the cell viability was lower than 80%. […] For a visual control, the last well of each condition was fixed with cold methanol and stained with kit RAL 555 (RAL Diagnostics, France) and examined microscopically (AxioVert 200M; Zeiss, France) at a magnification of ×20 instead of being tested with UptiBlue.

SMILES	CC50 at 72 h [3]	further results
OC(Cn1cncn1)(Cn1cncn1)c1ccc(F)cc1F [fluconazole]	–	IC50 [1]: 3 µM
CCc1nc(N)nc(N)c1-c1ccc(Cl)cc1 [PYR, pyrimethamine, reference compound]	10.5 µM	IC50 ([2]; Toxoplasma gondii, Vero): 1.17 ± 0.076 µM
O=C(Nc1ccc(C(F)(F)F)c(C(F)(F)F)c1)c1cc(Cl)ccc1O [MMV687807]	1.69 µM	–
O=C(Nc1nc(-c2ccccn2)cs1)c1cncn1-c1ccccc1 [MMV676512]	3.61 µM	–
CN1CCC(c2cc(-c3ccncc3)c(-c3ccc(F)cc3)[nH]2)CC1 [MMV688703]	–	selective antitoxoplasmic activity according to hit criteria [2]: not selective; selective antitoxoplasmic activity according to hit criteria ([2]; listed as MV688703): did not show the criteria for inclusion as an active compound
CNC(=O)c1nn(C)c2c1C(C)(C)Cc1cnc(Nc3ccc(N4CCN(C)CC4)cc3)nc1-2 [MMV676602]	3.3 µM	–
CC(C)(C)[C@H]1CC[C@H](CC2=C(O)C(=O)c3ccccc3C2=O)CC1 [MMV689480, buparvaquone, reference compound]	8.66 µM	–
c1ccc(-c2nc(NC3CCCCC3)cc(C3CC3)n2)nc1 [MMV021013]	15.9 µM	IC50 [2]: 1.12 ± 0.035 µM; IC50 ([2]; Toxoplasma gondii, Vero): < 2 µM
FC(F)(F)c1cnc(Sc2nnc(-c3ccncc3)o2)c(Cl)c1 [MMV011765]	9.48 µM	–
COc1ccc(OC)c(NCc2ccc3nc(N)nc(N)c3c2Cl)c1 [MMV675968]	5.5 µM	–
CCC(C)n1ncn(-c2ccc(N3CCN(c4ccc(OCC5COC(Cn6cncn6)(c6ccc(Cl)cc6Cl)O5)cc4)CC3)cc2)c1=O (stereo not shown) [itraconazole]	–	IC50 [1]: 0.5 µM
O=C(Nc1ccc(N2CCNCC2)cc1)c1ccn2ncc(-c3cccc(Cl)c3)c2n1 [MMV022478]	2.23 µM	–
